pKd: −log10 of the molar value.
Molecular target: myeloperoxidase (MPO) (Homo sapiens, UniProt P05164)
Test: flash photolysis/recombination kinetics
Type: binding

myeloperoxidase (MPO), sequence (P05164 165-273): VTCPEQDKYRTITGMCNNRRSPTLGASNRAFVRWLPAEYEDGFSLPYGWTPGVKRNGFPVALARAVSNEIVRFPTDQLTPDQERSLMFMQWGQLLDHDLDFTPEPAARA
myeloperoxidase (MPO), sequence (P05164 279-745): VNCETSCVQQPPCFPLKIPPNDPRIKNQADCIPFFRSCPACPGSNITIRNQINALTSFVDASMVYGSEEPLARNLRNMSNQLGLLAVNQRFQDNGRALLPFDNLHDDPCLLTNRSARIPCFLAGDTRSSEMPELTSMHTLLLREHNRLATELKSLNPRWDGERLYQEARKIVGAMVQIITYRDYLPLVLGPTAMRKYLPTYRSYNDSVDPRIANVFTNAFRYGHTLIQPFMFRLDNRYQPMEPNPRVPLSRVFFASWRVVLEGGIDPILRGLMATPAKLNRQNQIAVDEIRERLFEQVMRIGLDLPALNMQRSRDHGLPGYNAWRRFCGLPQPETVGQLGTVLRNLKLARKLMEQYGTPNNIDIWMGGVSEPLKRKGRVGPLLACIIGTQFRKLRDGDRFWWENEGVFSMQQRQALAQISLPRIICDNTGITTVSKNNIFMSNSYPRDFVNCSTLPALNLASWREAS

[C-]#[O+] [CO] showed a pKd of 2.80.

— publication PMC4529485 (Biochemistry, 2010)
